Reference: patent US20260207625A1, “New medical use of 3a-ethynyl-3ß hydroxyandrostan-17-one oxime” (priority 2022, published 2026)

Columns and labels:
6-OHDA rat model [1] = test: Fatigue in treadmill test, 6-OHDA rats; assay type: in vivo; settings: golexanolone 50 mg/kg daily intragastric, 5 weeks after surgery, 9 days of treatment
Excerpt: A 6-OHDA rat model as described by Heo et al. (Curr Biol. 2020 Jan. 20; 30(2): pp. 276-291) and by Carvalho et al. (Mol. Neurodegener. 2013, 8: 14: Behavioral characterization of the 6-hydroxidopamine model of Parkinson's disease and pharmacological rescuing of non-motor deficits) is used.
(§1) The unilaterally 6-hydroxydopamine (6-OHDA) rat model according to Carvalho M et al. in Molecular Neurodegeneration 2013, 8:14; pp. 1-11, was used.
Eight week old Wistar-Han male rats (56 animals) (Charles River, Barcelona) were housed, two per cage, under standard laboratory conditions: 12 hour light-dark cycle, 22° C. room temperature, 55% relative humidity, food and water available ad libitum. All manipulations were done in accordance with the local regulations (European Union Directive 2010/63/EU). […]
Fatigue was evaluated in a treadmill consisting of a motorized conveyor belt divided into two parallel sectors, each with an electrified grid. […] The value recorded during the last 15 minutes of each test (and the times it falls on the grid) is recorded. […]

6-OHDA rat model [2] = test: Motor coordination, Motorater test (horizontal ladder); assay type: in vivo; settings: 6-OHDA rats; 50 mg/kg daily intragastric; 7 weeks after surgery, 3 weeks of treatment; versus control rats
Excerpt: as §1
(§2) Under isoflurane (5% induction and then 2%) anesthesia the animals were placed on a stereotaxic frame with non-traumatic ear bars (Stoelting, USA), and unilaterally injected (left hemisphere) using an 30-gauge needle Hamilton syringe (Hamilton Company, Switzerland), with either vehicle (sham group, n=20) or 6-OHDA hydrochloride (Sigma, USA) (6-OHDA group, n=40) directly into the medial forebrain bundle (coordinates related to Bregma, AP=−4.4 mm; ML=−1.0 mm; DV=−7.8 mm; according to (Paxinos G, Watson C. The Rat Brain in Stereotaxic Coordinates. 4. San Diego, USA: Academic; 1998).
At a rate of 1 μl/min, sham animals received 2 μl of 0.2 mg/ml ascorbic acid in 0.9% NaCl, and 6-OHDA animals were injected with 2 μl 6-OHDA hydrochloride (4 μg/μl) with 0.2 mg/ml ascorbic acid in 0.9% NaCl. […]
Motor coordination was tested with the Motorater test (Zörner B, Filli L, Starkey M L, Gonzenbach R, Kasper H, Röthlisberger M, et al. Profiling locomotor recovery: comprehensive quantification of impairments after CNS damage in rodents. Nat Methods. 2010; 7(9): pp. 701-708). […] The performance is recorded from the bottom by a mobile high-speed camera at 200 frames per second. Failures to set a foot on the ladder stairs are quantified.

6-OHDA rat model [3] = test: Object location memory test (OLM); assay type: in vivo; settings: 6-OHDA rats; 50 mg/kg daily intragastric; 6 weeks after surgery, 2 weeks of treatment
Excerpt: as §1, §2
(§3) At a rate of 1 μl/min, sham animals received 2 μl of 0.2 mg/ml ascorbic acid in 0.9% NaCl, and 6-OHDA animals were injected with 2 μl 6-OHDA hydrochloride (4 μg/μl) with 0.2 mg/ml ascorbic acid in 0.9% NaCl. After injection the syringe was left in place for 10 minutes to allow diffusion. […]
The object location memory test (OLM) evaluates spatial location memory. […] The time exploring each object is analyzed. The discrimination ratio is calculated: (Time exploring new object location-time exploring old located object)/total time exploring the objects. […]

6-OHDA rat model [4] = test: Sucrose preference test (anhedonia, depression); assay type: in vivo; settings: 6-OHDA rats; 50 mg/kg daily intragastric; 7 weeks after surgery, 3 weeks of treatment
Excerpt: as §1, §2
(§4) At a rate of 1 μl/min, sham animals received 2 μl of 0.2 mg/ml ascorbic acid in 0.9% NaCl, and 6-OHDA animals were injected with 2 μl 6-OHDA hydrochloride (4 μg/μl) with 0.2 mg/ml ascorbic acid in 0.9% NaCl. After injection the syringe was left in place for 10 minutes to allow diffusion.
(§5) Rats positive in the apomorphine-induced rotation test (20 animals) were included in the study, together with 20 sham-operated controls. Golexanolone treatment (50 mg/kg, daily, intragastric) and vehicle treatment as negative controls started 4 weeks after surgery. […]

6-OHDA rat model [5] = test: Anxiety, open arena test; assay type: in vivo; settings: 6-OHDA rats; 50 mg/kg daily intragastric; 5 weeks after surgery, 10 days of treatment
Excerpt: as §1, §2, §4
(§6) Rats positive in the apomorphine-induced rotation test (20 animals) were included in the study, together with 20 sham-operated controls. […]
Anxiety was evaluated in an open arena during five minutes by measuring the time that the rat remains in the central zone, instead of close to the walls of the box, where the rats feel safer. […]

astrocytes = test: Astrocytes activation in striatum (GFAP stained area); assay type: in vivo, rat; settings: 6-OHDA rats treated with golexanolone; 5 weeks after surgery; mean±SEM; untreated 6-OHDA rats 123±10%
Excerpt: as §1, §2, §4, §6
Astrocytes activation was assessed at 5 weeks after surgery, by measuring the total GFAP stained area with Image J software. Results were expressed as percentage of shams.
Astrocyte activation in the striatum was analysed by immunohistochemistry. […]

α-synuclein = α-synuclein content in striatum by Western blot; assay type: in vivo, rat; settings: 6-OHDA rats treated with golexanolone, 10 weeks after surgery, mean±SEM, untreated 6-OHDA rats 195±35%
Excerpt: as §1, §2, §3
α-synuclein content was analyzed by Western blot. […] Membranes were scanned using the ScanJet 5300C (Hewlett-Packard, Amsterdam, the Netherlands) and band intensities were quantified using Alpha Imager 2200 version 3.1.3 (Alpha Innotech Corporation). Results were expressed as percentage of shams. […]

[6] = system: 6-OHDA rats treated with L-DOPA; test: L-dopa Induced Dyskinesia (LID) rat model, Abnormal Involuntary Movements (AIMs); assay type: in vivo; settings: 6 weeks of daily L-DOPA, 3 weeks of oral golexanolone, compared to group receiving only L-DOPA
Experimental: The ability of golexanolone to reduce or eliminate L-dopa Induced Dyskinesia (LID) was analyzed. This test is described in FIG. 14.
L-dopa Induced Dyskinesia (LID) was induced in a rat model described by Loiodice et al in ACS Chem Neurosci. 2018 Apr. 18; 9(4): pp. 762-772. Abnormal Involuntary Movements (AIM) was measured.
Rats positive in the apomorphine test received daily L-DOPA treatment starting 4 weeks after surgery and oral golexanolone treatment starting 7 weeks after surgery.
The experiment included the following groups: • 1) 6-OHDA rats treated with L-DOPA and receiving vehicle; • 2) 6-OHDA rats treated with golexanolone and treated with L-DOPA (n=12 per group). The appearance of a variety of AIMs were analyzed after 6 weeks of daily L-DOPA injections, and 3 weeks of golexanolone treatment, as described in Lundblad M et al; Eur J Neurosci. 2002 January; 15(1): pp. 120-132, and Loiodice et al in ACS Chem Neurosci. 2018 Apr. 18; 9(4): pp. 762-772.
Axial AIMs, limb AIMs, orolingual AIMs and locomotive AIMs were evaluated. One hour after the daily dose of golexanolone, L-DOPA was injected and AIMs were analyzed every 20 minutes for a total of three hours, as shown in FIG. 15.
As shown in this graph, there were less AIMs in the group of animals treated with golexanolone compared to the group who received only L-DOPA.

6-OHDA rat model [7] = test: CatWalk test, locomotor gait swing; assay type: in vivo; settings: 6-OHDA rats; 50 mg/kg daily intragastric; 7 weeks after surgery, 3 weeks of treatment
Excerpt: as §1, §2, §3
(§7) The CatWalk™ system measures various aspects of locomotor pattern. Based on the position, pressure, and surface area of each footfall, multiple parameters are calculated. […] Paw print designations were assigned and data analysed using the CatWalk analysis software (v 7.1)
Locomotor gait swing was evaluated in the catwalk test. […]

[8] = system: tyrosine hydroxylase (TH); test: Tyrosine hydroxylase content in striatum, immunohistochemistry; assay type: in vivo, rat; settings: 6-OHDA rats treated with golexanolone; 5 weeks after surgery; mean±SEM; untreated 6-OHDA rats 36±4%
Excerpt: as §1, §2, §4, §5
Tyroxine hydroxylase (TH) was analysed according to Heo et al (Curr Biol. 2020 Jan. 20; 30(2): pp. 276-291). […]

6-OHDA rat model [9] = test: CatWalk test, initial dual stance; assay type: in vivo; settings: 6-OHDA rats; 50 mg/kg daily intragastric
Excerpt: as §1, §2, §3, §7
Initial dual stance was evaluated in the catwalk test. […]

microglia = test: Microglia activation in striatum (perimeter of Iba1 stained cells); assay type: in vivo, rat; settings: 6-OHDA rats treated with golexanolone; 5 weeks after surgery; mean±SEM; untreated 6-OHDA 217±8, shams 254±1
Excerpt: as §1, §2, §4, §6
In this Parkinson's Disease test model, microglia activation was analyzed by measuring the perimeter of individual Iba1 stained cells with IpWin2 software at 5 weeks after surgery.

C#C[C@]1(O)CC[C@@]2(C)C(CC[C@@H]3[C@@H]2CC[C@]2(C)/C(=N/O)CC[C@@H]32)C1 (stereo partly drawn) [golexanolone, 3α-ethynyl-3β-hydroxyandrostan-17-one oxime]
Fatigue (time in the treadmill, time in shock) (6-OHDA rat model [1]): improved fatigue | Errors crossing the horizontal ladder (failures to set a foot on the ladder stairs) (6-OHDA rat model [2]): made less errors | Object location memory (discrimination ratio) (6-OHDA rat model [3]): improves object location memory | Depression (anhedonia, sucrose preference) (6-OHDA rat model [4]): improves depression | Anxiety (time in the central zone of open arena) (6-OHDA rat model [5]): improves anxiety | Astrocyte activation: total GFAP stained area in the injured striatum (astrocytes): 92±4 % of shams | Level of α-synuclein in the injured striatum (α-synuclein): 99±9 % of shams | All AIMs (axial, limb, orolingual and locomotive) during three hours [6]: less AIMs | Locomotor gait swing in the CatWalk test (6-OHDA rat model [7]): improved swing | TH staining in the striatum [8]: 62±11 % of shams | Initial dual stance in the CatWalk test (6-OHDA rat model [9]): improves initial dual stance | Microglia activation: perimeter of individual Iba1 stained cells in the injured striatum (microglia): 250±8 μm
